Measurements reported in patent US8110654B2, “T cell epitope peptides of ovarian cancer anti-idiotypic antibody 6B11 and use thereof” (Peking University People;s Hospital, priority 2006, dated 2012).

Legend:
[1] = system: CD4 T cells derived from 6B11-CTLs; assay: Intracellular cytokines of CD4 T cells by flow cytometry; type: cell-based, human; conditions: 6B11-CTLs co-incubated with peptide-loaded DCs
Protocol: The anti-idiotype antibody 6B11-CTLs were co-incubated respectively with DCs loading VH CDR3 peptides and DCs without loading. The production of intracellular cytokines in CD4 T cells derived from the anti-idiotype antibody 6B11-CTLs was detected by flow cytometry.

HLA-A2 = HLA-A2 (Homo sapiens, UniProt P04439, D140Y/D185E/D98H/E176V/E277Q/G131W/G231S/I119V/I121R/I166T/I218V/L300P/L318F/N151K/N90K/P208A/P217A/Q86G/Q94H/R138H/R169H/T345S); assay: T2 cell binding assay (HLA class I expression on T2 cells, confocal microscopy); type: cell-based; as to T2 binding: key: +++: high binding capacity; ++: moderate binding capacity; +: low binding capacity
Protocol: The peptides obtained by […] method and the VH CDR1 and VL CDR2 region peptides were subject to T2 cell binding assay. T2 cells were co-incubated with each peptides in different concentrations (0.3 μg/ml, 3 μg/ml and 30 μg/ml) for 24 hours and then co-incubated with anti-human MHC class I antibodies. The expression profile of HLA class I molecules on the surface of T2 cells was analyzed by confocal microscopy. […] They were synthesized together with the CDR peptides of the anti-idiotype antibody for screening CTL epitope peptides.

Sequence | IFN-γ secretion by CD4 T cells [1] | IL-4 level in CD4 T cells [1] | binding capacity in T2 cell binding assay (in words) (HLA-A2; T2 cells co-incubated with peptide 24 hours) | T2 binding (HLA-A2; T2 cells co-incubated with peptide (0.3, 3, 30 μg/ml) 24 hours, HLA class I surface expression)
IALITTKIAWYFDV (VH CDR3 region peptide) [VH CDR3 peptide] | high level | low level |  | 
SQSTHFPYT (VL CDR3 region peptide) |  |  | moderate binding capacity | ++
